The text below walks through data of patent US11274295B2, “Methods for generating pools of variants of a DNA template” (priority 2012, dated 2022).

Type in all cases: cell-based
Assay [1] concerns E. coli expressing WT APH(3′)II. The assay is described as follows: MIC of aminoglycosides in E. coli expressing WT APH(3′)II, immediately following transformation. The following applies: Stellar cells transformed with WT pBR322-EM7-neo, LB with carbenicillin 50 μg/mL, 24 hrs, MIC = lowest dilution with A600 < 0.025; for MIC: Escherichia coli, read-out: estimated 1:1 WT MIC. On the procedure:
(§1) To determine the minimum inhibitory concentration (MIC) of each of the six aminoglycosides: kanamycin, ribostamycin, G418, amikacin, neomycin, paromomycin (Sigma-Aldrich, St. Louis, Mo.) in E. coli expressing WT APH(3′)II, Stellar cells were transformed with pBR322-EM7-neo, recovered in SOC medium (New England Biolabs (NEB), Ipswich, Mass.) at 37° C. for 1 hr, diluted 1:100 with LB and then divided into 96-well growth blocks containing LB with carbenicillin (50 μg/mL) and 2-fold serial dilutions of aminoglycosides. After growth at 37° C. with shaking for 24 hrs, the culture densities were assessed by absorbance at 600 nm (A600) using a NanoDrop 8000 (Thermo Scientific, Billerica, Mass.).
(§2) The cultures were incubated in 50 mL tubes at 37° C. with shaking for 24 hours, pelleted by centrifugation and frozen at −20° C. Plasmids were isolated from the pellets using QIAprep Spin Miniprep kits (Qiagen). Each transformation and selection was performed in duplicate, using each of the two independently generated mutant libraries.

Assay [2] deals with E. coli transformed with APH(3′)II substitution libraries. The assay is described as follows: Mutational scanning selection of APH(3′)II substitution libraries in E. coli.
Description: To perform mutational scanning in vivo, we cultured E. coli transformed with APH(3′)II substitution libraries in liquid media supplemented with decreasing concentrations of one of six aminoglycoside antibiotics with diverse structures and a wide range of potencies: kanamycin, ribostamycin, G418, amikacin, neomycin or paromomycin (FIG. 3). To normalize the selective pressures induced by the different antibiotics, we first established their minimum inhibitory concentrations (MICs) for E. coli transformed with “wild-type” (WT) APH(3′)II and then used 1:1, 1:2, 1:4 and 1:8 dilutions of WT MICs for the respective library selections. We note that, with the exception of G418 and amikacin, even the 1:8 dilutions were sufficient to inhibit growth of untransformed E. coli. After overnight selection, plasmids were isolated from the surviving cells and their coding regions were shotgun sequenced to compare the amino acid composition of the selected libraries to that of the original input libraries (median coverage=51,400×).
as §2

The test system of a further assay is untransformed e. coli. As to the kind of experiment: Growth inhibition of untransformed E. coli by aminoglycoside. The following applies: Table 2 experiment.
Assay [3] relates to E. coli transformed with APH(3′)II variants (pBR322[EM7-K1] through pBR322[EM7-K44]). As to the kind of experiment: MIC of aminoglycosides in E. coli carrying synthetic APH(3′)II variants, 2-fold dilution series, A600. The following applies: E. coli expressing the APH(3′)II variant, 2-3 independent cultures. On the procedure: as §1
To establish the substrate specificity of the synthetic APH(3′)II variants relative to WT APH(3′)II, glycerol stocks of the relevant clones (pBR322[EM7-K1] through pBR322[EM7-K44]) were streaked onto LB agar plates and cultured overnight at 37° C. Single colonies were then inoculated into 1 mL LB with 50 μg carbenicillin, incubated at 37° C. with shaking for 6 hours, diluted 1:100 into LB media, and then split into 96-well deep well plates containing LB with carbenicillin (50 μg/mL) and 2-fold serial dilutions of aminoglycosides dilution series. We note that the longer recovery in these follow-up experiments increased the absolute MICs compared to those we measured immediately following transformation).

`CN[C@@H]1[C@@H](O)[C@@H](O[C@@H]2[C@@H](O)[C@H](O[C@H]3O[C@H]([C@@H](C)O)[C@@H](O)[C@H](O)[C@H]3N)[C@@H](N)C[C@H]2N)OC[C@]1(C)O` [G418]: the “estimated 1:1 WT MIC” value in assay [1] was 5 mg/L. In addition, the selection pressure result in assay [2] (at its 1:8 WT MIC) was “did not provide an effective selection pressure”.

For orientation: MIC means the lowest concentration found to suppress growth. As to `NCC[C@H](O)C(=O)N[C@@H]1C[C@H](N)[C@@H](O[C@H]2O[C@H](CN)[C@@H](O)[C@H](O)[C@H]2O)[C@H](O)[C@H]1O[C@H]1O[C@H](CO)[C@@H](O)[C@H](N)[C@H]1O` [amikacin], the MIC in assay [1] was 10 mg/L. In addition, in assay [2] (at its 1:4 and 1:8 WT MICs), the selection pressure entry is listed as “did not provide an effective selection pressure”. Further, the “lowest concentration that reliably inhibited growth of untransformed e. coli” value with untransformed e. coli is listed as “(*) 12.5 ug/mL was the lowest amikacin concentration that reliably inhibited growth of untransformed e. coli in this experiment. These estimated MICs therefore reflect total or near total loss of activity on both susbtrates”.

For `NC[C@H]1O[C@H](O[C@H]2[C@H](O)[C@@H](O[C@H]3O[C@H](CO)[C@@H](O)[C@H](N)[C@H]3O)[C@H](N)C[C@@H]2N)[C@H](O)[C@@H](O)[C@@H]1O` [kanamycin], in assay [1], the MIC was 225 mg/L.

Regarding `NC[C@@H]1O[C@H](O[C@H]2[C@@H](O)[C@H](O[C@@H]3[C@@H](O)[C@H](N)C[C@H](N)[C@H]3O[C@H]3O[C@H](CO)[C@@H](O)[C@H](O)[C@H]3N)O[C@@H]2CO)[C@H](N)[C@@H](O)[C@@H]1O` [paromomycin], in assay [1], the MIC is 320 mg/L.

With `NC[C@H]1O[C@H](O[C@H]2[C@H](O[C@@H]3O[C@H](CO)[C@@H](O)[C@H]3O)[C@@H](O)[C@H](N)C[C@@H]2N)[C@H](N)[C@@H](O)[C@@H]1O` [ribostamycin], in assay [1], the MIC is 2500 mg/L.

Take neomycin: the “estimated 1:1 WT MIC” value in assay [1] is 40 mg/L.

B1: KKA2_KLEPN_opt_K1: Wild-type aminoglycoside-3′-phosphotransferase-II (APH(3′)II) (protein, UniProt P00552 1-264, looked up)
Aminoglycoside …: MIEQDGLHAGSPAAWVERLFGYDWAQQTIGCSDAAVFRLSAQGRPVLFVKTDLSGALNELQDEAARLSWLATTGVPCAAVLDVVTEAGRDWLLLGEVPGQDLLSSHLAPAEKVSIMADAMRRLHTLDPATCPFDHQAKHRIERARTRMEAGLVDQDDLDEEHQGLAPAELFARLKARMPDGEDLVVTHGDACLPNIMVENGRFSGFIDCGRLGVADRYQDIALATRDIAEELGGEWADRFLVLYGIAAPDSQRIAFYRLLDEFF
modifications: codon-optimized
For B1, in assay [3], the “MIC of G418” value worked out at 50.00 mg/L, the MIC of amikacin worked out at 25.00 mg/L, the MIC of kanamycin came to 2000.00 mg/L and the MIC of neomycin is 400.00 mg/L. In assay [3], the MIC of paromomycin was found to be 4000.00 mg/L and the MIC of ribostamycin turned out to be 15000.00 mg/L.
